Where “and” joins values, the source holds several entries; their conditions need not be identical. Identical values can stand only once. Like-named read-outs stand apart in the source and are kept apart here.
Target: His6‐FraB (Salmonella FraB deglycase) (Salmonella enterica subsp. enterica serovar Typhimurium, UniProt Q8ZLD0)
Test: FraB-G6PD coupled assay, IC50 determination
Assay type: biochemical
Experimental: The substrate for FraB, 6‐P‐F‐Asp, was synthesized as previously described. FraB activity was monitored as described previously, with the following changes. The final reaction (30 μL) consisted of 25 mM HEPES pH 8 (at 20 °C), 5 mM MgCl2, 0.1 mM ethylene glycol tetraacetic acid (EGTA), 0.5 mM NAD^+, 1 mU G6PD from Leuconostoc mesenteroides (#LS003981; Worthington Biochemicals, Lakewood, NJ, USA), 100 nM His6‐FraB, and 0–3 mM 6‐P‐F‐Asp. The reaction mixture without substrate (29 μL) was added to one well of a 384‐well polystyrene white μClear® microplate (#781095; Greiner Bio‐One, Monroe, NC, USA) and incubated at 37 °C for 2 min, prior to the addition of 1 μL substrate to initiate the reaction. NADH generation was monitored using either absorbance (340 nm) or fluorescence (350 nm excitation, 450 nm emission) and with either an INFINITE M1000 PRO (Tecan, Mannedorf, Switzerland) or Synergy H1 (Biotek, Winooski, VT, USA) plate reader. Absorbance/fluorescence was plotted against time and slopes were obtained by linear regression analyses. These slopes were converted into initial velocities by dividing them by either the absorbance extinction coefficient (ε340 = 6,220 M ^−1·cm^−1) or the molar fluorescence determined based on standard curves obtained in different plate readers (23,646 RFUs·μM ^−1, Tecan; 285,108 RFUs·μM ^−1, Biotek; Fig. S2). These initial velocities (v o) in turn were plotted against [6‐P‐F‐Asp] to obtain Michaelis–Menten curves that were fit to the formula v o = (V max × [S])/(K m + [S]) by Kaleidagraph (Version 4.5.3; Synergy Software, Reading, PA, USA). The activity of recombinant FraB (Fig. S3) was similar to that as reported previously.
For determining the IC50 value of each compound, 26 μL of master mix was added to two rows (48 wells) of a 384‐well Greiner plate followed by 3 μL of inhibitor to four wells per concentration (12 concentrations total) using a single‐channel pipette. After mixing with a 12‐channel pipette, the plate was incubated at 20 °C for 20 min. To initiate the reaction, a 12‐channel pipette was used to add and mix 1 μL of 7.5 mM 6‐P‐F‐Asp to all 48 wells. The final reaction (30 μL) consisted of 25 mM HEPES pH 8.0 at 20 °C, 5 mM MgCl2, 0.1 mM EGTA, 0.5 mM NAD^+, 1 mU G6PD, 100 nM His6‐FraB, 0.25 mM 6‐P‐F‐Asp, and varying concentrations of inhibitor (10% v/v DMSO). NADH fluorescence was monitored every 10 s for 10 min total on a SPARK® multi‐mode multiplate reader (Tecan), as described above, and plotted against time. Slopes of the linear range of each curve were converted to initial velocities, as described above, that were then plotted against (inhibitor). Kaleidagraph was used to fit a sigmoidal curve to each plot using the following formula in order to determine the [IC50]: % inhibition = 100/1 + (IC50/[I]), where I is [inhibitor] [48].

[1] = 0.25 mM 6‐P‐F‐Asp, mean and standard error from two measurements, read-out: IC50
[2] = Trial 1, 0.25 mM 6-P-F-Asp, unit in Fig. S10, read-out: IC50 (curve fit of IC50 plots, Fig. S10)
[3] = Trial 2, 0.25 mM 6-P-F-Asp, unit in Fig. S10, read-out: IC50 (curve fit of IC50 plots, Fig. S10)

His6‐FraB (Salmonella FraB deglycase), sequence (Q8ZLD0 entry or part of it): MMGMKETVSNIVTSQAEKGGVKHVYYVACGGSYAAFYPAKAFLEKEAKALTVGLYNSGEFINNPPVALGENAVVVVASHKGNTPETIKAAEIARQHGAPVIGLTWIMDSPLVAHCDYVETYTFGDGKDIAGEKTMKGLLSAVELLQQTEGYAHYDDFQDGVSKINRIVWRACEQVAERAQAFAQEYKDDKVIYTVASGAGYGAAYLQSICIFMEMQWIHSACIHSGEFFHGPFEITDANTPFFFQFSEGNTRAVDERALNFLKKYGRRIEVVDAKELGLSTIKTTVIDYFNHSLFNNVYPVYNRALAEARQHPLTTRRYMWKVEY

For Cc1cccc(Cl)c1-n1sc(=O)n(CC2CC2)c1=O [1524:E12, 2‐(2‐chloro‐6‐methylphenyl)‐4‐(cyclopropylmethyl)‐1,2,4‐thiadiazolidine‐3,5‐dione], the IC50 [1] was 4.3 µM, the IC50 [2] was 4.28 µM and 4.3 µM and the IC50 [3] was 4.29 µM and 4.3 µM.
For O=c1sn(-c2ccccc2C(F)(F)F)c(=O)n1CC1CC1 [1524:G12, 4‐(cyclopropylmethyl)‐2‐[2‐(trifluoromethyl)phenyl]‐1,2,4‐thiadiazolidine‐3,5‐dione], the IC50 [1] was 2.8 ± 0.4 µM, the IC50 [2] was 3.24 µM and 3.2 µM and the IC50 [3] was 2.39 µM and 2.4 µM.
O=c1[nH][nH]c(=S)n1Cc1ccccc1 [1533:K12, 4‐benzyl‐5‐sulfanylidene‐1,2,4‐triazolidin‐3‐one] was tested, and the IC50 [1] was 27.6 ± 3.9 µM, the IC50 [2] was 31.5 µM and the IC50 [3] was 23.7 µM.
c1ccc(-c2nnc3sc(C4COc5ccccc5O4)nn23)nc1 (stereo not drawn) [3469:F02, 6‐(2,3‐dihydro‐1,4‐benzodioxin‐3‐yl)‐3‐pyridin‐2‐yl‐[1,2,4]triazolo[3,4‐b][1,3,4]thiadiazole] was tested, and the IC50 [1] was 42 ± 2.6 µM, the IC50 [2] was 44.5 µM and 44.4 µM and the IC50 [3] was 39.3 µM.
For Fc1ccc(-c2nn3c(-c4ccccn4)nnc3s2)cc1 [3469:N17, 6‐(4‐fluorophenyl)‐3‐pyridin‐2‐yl‐[1,2,4]triazolo[3,4‐b][1,3,4]thiadiazole], the IC50 (IC50 (curve fit of IC50 plots, Fig. S10), Trial 1, 0.25 mM 6-P-F-Asp, unit in Fig. S10) was 113 µM, the IC50 (IC50 (curve fit of IC50 plots, Fig. S10), Trial 2, 0.25 mM 6-P-F-Asp, unit in Fig. S10) was 86.7 µM and the IC50 (IC50, 0.25 mM 6‐P‐F‐Asp, mean and standard error from two measurements) was 100 ± 13 µM.
Work on CC(C)Cc1cc(-c2nn3c(-c4ccccc4Cl)nnc3s2)n[nH]1 [3470:A09, 3‐(2‐chlorophenyl)‐6‐[5‐(2‐methylpropyl)‐1H‐pyrazol‐3‐yl]‐[1,2,4]triazolo[3,4‐b][1,3,4]thiadiazole] yielded an IC50 [1] of 15.4 ± 0.4 µM, an IC50 [2] of 15.8 µM and an IC50 [3] of 15 µM.

From publication PMC12051030, “Identification of inhibitors of the Salmonella FraB deglycase, a drug target” (FEBS Open Bio, 2025)
